Data reported in article PMC3433420 (PLoS ONE, 2012).
Residues, ends and D or L forms follow the SMILES beside them.

Legend:
[1] = molecular target: T1, PIK3R3-NC tandem SH2 domains (Homo sapiens, UniProt Q92569); assay: FP saturation binding assay; conditions: protein PIK3R3-NC; FP, high-confidence ErbB interactions; mean of replicate hits
T1 construct: the tandem protein was included in our analysis with all internal amino acids linking the domains; 6X His; thioredoxin; made in house; host or cells: E. coli BL21(DE3)pLysS
Method in brief: (§1)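 Rhodamine-labeled phosphopeptides (10 nM final) titrated with SH2 domain protein (0.002–10 µM, 12 points) in 20 mM HEPES, 100 mM KCl, 0.1% Tween-20, 5 mM DTT, pH 7.8; 20 min, room temperature, dark. FP read at 530/555 nm; KD fitted by nonlinear regression after thioredoxin background correction and outlier removal.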

PIK3R1-C SH2 domain = molecular target: T2, PIK3R1-C SH2 domain (Homo sapiens, UniProt P27986); assay: FP saturation binding assay; conditions: protein PIK3R1-C, high-confidence ErbB interactions, mean of replicate hits
T2 construct: 6X His; thioredoxin; made in house; host or cells: E. coli BL21(DE3)pLysS
T2 sequence (P27986 624-718 limits assumed): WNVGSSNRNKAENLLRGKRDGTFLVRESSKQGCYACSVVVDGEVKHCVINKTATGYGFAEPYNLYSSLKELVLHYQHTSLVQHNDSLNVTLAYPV
Method in brief: as §1

PIK3R3-N SH2 domain = molecular target: T3, PIK3R3-N SH2 domain (Homo sapiens, UniProt Q92569); assay: FP saturation binding assay; conditions: protein PIK3R3-N; FP, high-confidence ErbB interactions; mean of replicate hits
T3 construct: 6X His; thioredoxin; made in house; host or cells: E. coli BL21(DE3)pLysS
Method in brief: as §1

PIK3R3-C SH2 domain = molecular target: T4, PIK3R3-C SH2 domain (Homo sapiens, UniProt Q92569); assay: biochemical; format: binding; conditions: protein PIK3R3-C; FP, high-confidence ErbB interactions; mean of replicate hits
T4 construct: thioredoxin; made in house; host or cells: E. coli BL21(DE3)pLysS

PIK3R1-N SH2 domain = molecular target: T5, PIK3R1-N SH2 domain (Homo sapiens, UniProt P27986); assay: biochemical; format: binding; conditions: protein PIK3R1-N; FP, high-confidence ErbB interactions; mean of replicate hits
T5 construct: thioredoxin; made in house; host or cells: E. coli BL21(DE3)pLysS
T5 sequence (P27986 333-428 limits assumed): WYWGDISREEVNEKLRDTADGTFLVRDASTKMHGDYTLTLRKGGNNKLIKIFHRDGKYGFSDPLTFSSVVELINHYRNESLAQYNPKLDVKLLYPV

[2] = molecular target: T6, PIK3R1-NC tandem SH2 domains (Homo sapiens, UniProt P27986); assay: FP saturation binding assay; conditions: protein PIK3R1-NC; FP, high-confidence ErbB interactions; mean of replicate hits
T6 construct: the tandem protein was included in our analysis with all internal amino acids linking the domains; 6X His; thioredoxin; made in house; host or cells: E. coli BL21(DE3)pLysS
T6 sequence (P27986 333-718 limits assumed): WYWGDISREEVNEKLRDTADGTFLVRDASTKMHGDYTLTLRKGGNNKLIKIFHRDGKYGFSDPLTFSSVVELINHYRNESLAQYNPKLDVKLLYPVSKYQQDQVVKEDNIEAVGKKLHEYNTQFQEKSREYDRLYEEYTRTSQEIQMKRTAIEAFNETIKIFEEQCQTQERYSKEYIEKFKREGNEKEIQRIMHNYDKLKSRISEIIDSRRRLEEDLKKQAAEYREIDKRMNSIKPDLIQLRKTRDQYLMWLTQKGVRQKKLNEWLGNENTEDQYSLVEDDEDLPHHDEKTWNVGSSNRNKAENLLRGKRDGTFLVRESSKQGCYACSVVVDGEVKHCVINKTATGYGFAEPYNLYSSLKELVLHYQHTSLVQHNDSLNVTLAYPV
Method in brief: as §1

PIK3R2-N SH2 domain = PIK3R2-N SH2 domain (Homo sapiens, UniProt O00459); assay: FP saturation binding assay
PIK3R2-N SH2 domain, sequence (O00459 330-425 limits assumed): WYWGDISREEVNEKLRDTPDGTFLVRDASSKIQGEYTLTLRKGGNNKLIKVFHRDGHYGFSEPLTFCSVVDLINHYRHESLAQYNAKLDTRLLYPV

PLCG1-C SH2 domain = molecular target: T7, PLCG1-C SH2 domain (Homo sapiens, UniProt P19174); assay: biochemical; format: binding; conditions: protein PLCG1-C; high-confidence ErbB interactions; mean of replicate hits
T7 construct: The 6X His-tagged SH2 domain proteins used in the assay, PLCG1-C, SHC4, VAV2; thioredoxin; made in house; host or cells: E. coli BL21(DE3)pLysS
T7 sequence (P19174 668-756 limits assumed): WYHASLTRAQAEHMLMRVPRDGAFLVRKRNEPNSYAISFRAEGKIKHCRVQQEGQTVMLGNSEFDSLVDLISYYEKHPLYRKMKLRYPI

RASA1-N SH2 domain = molecular target: T8, RASA1-N SH2 domain (Homo sapiens, UniProt P20936); assay: FP saturation binding assay
T8 sequence (P20936 181-272 limits assumed): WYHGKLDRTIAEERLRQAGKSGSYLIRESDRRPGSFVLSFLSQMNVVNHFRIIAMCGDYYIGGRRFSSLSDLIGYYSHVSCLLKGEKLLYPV

YES1 SH2 domain = molecular target: T9, YES1 SH2 domain (Homo sapiens, UniProt P07947); assay: FP saturation binding assay; conditions: protein YES1; high-confidence ErbB interactions; mean of replicate hits
T9 construct: 6X His; thioredoxin; made in house; host or cells: BL21(DE3)pLysS E. coli
T9 sequence (P07947 158-255 limits assumed): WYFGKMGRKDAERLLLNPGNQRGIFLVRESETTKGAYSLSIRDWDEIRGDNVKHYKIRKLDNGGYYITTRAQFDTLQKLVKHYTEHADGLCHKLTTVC
Method in brief: as §1

PTK6 SH2 domain = molecular target: T10, PTK6 SH2 domain (Homo sapiens, UniProt Q13882); assay: FP saturation binding assay; conditions: protein PTK6; high-confidence ErbB interactions; mean of replicate hits
T10 construct: from the PTK6 SH2 domain; 6X His; thioredoxin; made in house; host or cells: E. coli BL21(DE3)pLysS
T10 sequence (Q13882 78-170 limits assumed): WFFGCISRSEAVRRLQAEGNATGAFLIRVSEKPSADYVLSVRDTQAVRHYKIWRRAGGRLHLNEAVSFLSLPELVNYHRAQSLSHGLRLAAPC
Method in brief: as §1

GRB7 SH2 domain = GRB7 SH2 domain (Homo sapiens, UniProt Q14451); assay: FP saturation binding assay; conditions: Mean KD (μM), protein GRB7; FP, high-confidence ErbB interactions; mean of replicate hits
GRB7 SH2 domain, sequence (Q14451 431-527 limits assumed): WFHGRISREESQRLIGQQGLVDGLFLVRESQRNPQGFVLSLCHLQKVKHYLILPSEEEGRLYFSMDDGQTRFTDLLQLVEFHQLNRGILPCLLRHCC

[3] = molecular target: PIK3R2-NC tandem SH2 domains (Homo sapiens, UniProt O00459); assay: FP saturation binding assay
PIK3R2-NC tandem SH2 domains, sequence (O00459 330-716 limits assumed): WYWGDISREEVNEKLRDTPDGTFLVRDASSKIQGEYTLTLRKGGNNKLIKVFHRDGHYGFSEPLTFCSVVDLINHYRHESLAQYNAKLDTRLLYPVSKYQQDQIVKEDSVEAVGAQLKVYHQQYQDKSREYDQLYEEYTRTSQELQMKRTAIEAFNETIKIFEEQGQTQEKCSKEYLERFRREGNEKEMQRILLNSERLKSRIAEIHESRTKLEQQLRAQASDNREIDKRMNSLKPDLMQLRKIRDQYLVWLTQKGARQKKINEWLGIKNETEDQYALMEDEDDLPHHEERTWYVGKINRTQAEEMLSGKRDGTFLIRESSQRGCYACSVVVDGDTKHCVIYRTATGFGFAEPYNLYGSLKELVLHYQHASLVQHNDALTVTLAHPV

TENC1 SH2 domain = assay: FP saturation binding assay; conditions: Tensin family SH2 domains
TNS1 SH2 domain = molecular target: T11, TNS1 SH2 domain (Homo sapiens, UniProt Q9HBL0); assay: FP saturation binding assay; conditions: Tensin family SH2 domains
T11 sequence (Q9HBL0 1567-1676 limits assumed): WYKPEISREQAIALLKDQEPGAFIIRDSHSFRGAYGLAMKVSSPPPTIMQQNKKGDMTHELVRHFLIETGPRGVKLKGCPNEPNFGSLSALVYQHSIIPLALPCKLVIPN

TNS3 SH2 domain = molecular target: T12, TNS3 SH2 domain (Homo sapiens, UniProt Q68CZ2); assay: FP saturation binding assay; conditions: FP saturation assay; Tensin family SH2 domains
T12 sequence (Q68CZ2 1172-1282 limits assumed): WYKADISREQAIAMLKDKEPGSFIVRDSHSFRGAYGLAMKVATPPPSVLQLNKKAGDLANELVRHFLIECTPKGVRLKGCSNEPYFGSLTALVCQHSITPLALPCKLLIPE

Row | affinity of recruitment of TENC1 (TENC1 SH2 domain) | affinity of recruitment of TNS1 (TNS1 SH2 domain) | affinity of recruitment of TNS3 (TNS3 SH2 domain) | Compound | Kd [1] [µM] | Kd (PIK3R1-C SH2 domain) [µM] | Kd (PIK3R3-N SH2 domain) [µM] | Kd (PIK3R3-C SH2 domain) [µM] | Kd (PIK3R1-N SH2 domain) [µM] | Kd [2] [µM] | Kd (PIK3R2-N SH2 domain) [µM] | Kd (PLCG1-C SH2 domain) [µM] | Kd (RASA1-N SH2 domain) [µM] | Kd (YES1 SH2 domain) [µM] | Kd (PTK6 SH2 domain) [µM] | Kd (GRB7 SH2 domain) [µM] | Kd [3] [µM]
1 | – | – | – | CSCC[C@H](NC(=O)[C@H](C)NC(=O)[C@H](C)NC(=O)[C@H](Cc1ccc(OP(=O)(O)O)cc1)NC(=O)[C@H](CC(=O)O)NC(=O)CNC(=O)CNC(=O)[C@@H]1CCCN1)C(=O)NCC(=O)N[C@@H](C)C(=O)N[C@@H](CS)C(=O)N1CCC[C@H]1C(=O)N[C@@H](CC(=O)O)C(=O)O [ErbB3 1276 13-mer] (HELM PEPTIDE1{P.G.G.D.[O=C([C@H](Cc1ccc(OP(=O)(O)O)cc1)N[*:1])[*:2]].A.A.M.G.A.C.P.D}$$$$V2.0) | 3.71 | 2.3 | 2.46 | 9.86 | 6 | – | – | – | – | – | – | – | –
2 | – | – | – | CSCC[C@H](NC(=O)[C@@H]1CCCN1C(=O)[C@@H](NC(=O)[C@H](Cc1ccc(OP(=O)(O)O)cc1)NC(=O)[C@H](C)NC(=O)[C@@H]1CCCN1C(=O)[C@@H]1CCCN1C(=O)[C@@H]1CCCN1)[C@@H](C)O)C(=O)N[C@@H](CO)C(=O)NCC(=O)N[C@@H](CC(N)=O)C(=O)N[C@@H](CCC(N)=O)C(=O)N[C@@H](CC(=O)O)C(=O)O [ErbB4 1056 13-mer] (HELM PEPTIDE1{P.P.P.A.[O=C([C@H](Cc1ccc(OP(=O)(O)O)cc1)N[*:1])[*:2]].T.P.M.S.G.N.Q.D}$$$$V2.0) | 0.23 | 0.16 | – | – | 2.57 | 0.21 | 2.96 | – | – | – | – | – | –
3 | – | – | – | CC(C)C[C@H](NC(=O)[C@H](Cc1ccc(O)cc1)NC(=O)[C@H](CC(C)C)NC(=O)[C@@H]1CCCN1C(=O)[C@H](CCC(=O)O)NC(=O)[C@H](CC(N)=O)NC(=O)[C@@H](NC(=O)[C@H](Cc1ccc(OP(=O)(O)O)cc1)NC(=O)[C@H](CCC(=O)O)NC(=O)[C@H](CC(=O)O)NC(=O)[C@H](CCC(=O)O)NC(=O)[C@H](C)N)C(C)C)C(=O)N[C@@H](CC(=O)O)C(=O)O [ErbB4 1202 13-mer] (HELM PEPTIDE1{A.E.D.E.[O=C([C@H](Cc1ccc(OP(=O)(O)O)cc1)N[*:1])[*:2]].V.N.E.P.L.Y.L.D}$$$$V2.0) | 2.86 | – | 1.86 | – | 1.35 | 1.54 | – | 1.55 | 1.46 | 1.61 | 1.19 | 2.06 | 4.97
4 | relatively high affinity | relatively high affinity | relatively high affinity | LDEApYVMASVDNd [ErbB1 pY764] | – | – | – | – | – | – | – | – | – | – | – | – | –
